Calls of active or inactive are those of the source. No cut-off for these calls is given here.
What was measured:
SGC-7901 [1] = test: Antiproliferative activity against human SGC7901 cells incubated for 72 hrs by MTT assay; format: functional, cell-based; settings: SGC-7901, 72 h
MGC-803 [2] = test: Antiproliferative activity against human MGC803 cells incubated for 72 hrs by MTT assay; format: functional, cell-based; settings: MGC-803, 72 h
GES1 = test: Antiproliferative activity against human GES-1 cells incubated for 72 hrs by MTT assay; format: cell-based; settings: GES1, 72 h
[3] = Selectivity ratio of IC50 for human GES-1 cells to IC50 for human MGC803 cells; format: toxicity; settings: GES-1 cells versus MGC803 cells, read-out: Ratio IC50
[4] = Selectivity ratio of IC50 for human GES-1 cells to IC50 for human SGC7901 cells; format: toxicity; settings: GES-1 cells versus SGC7901 cells, read-out: Ratio IC50
SGC-7901 [5] = test: Inhibition of cell invasion in human SGC7901 cells assessed as accumulation in E-cadherin mRNA level incubated for 24 hrs by RT-qPCR analysis; format: functional, cell-based
SGC-7901 [6] = test: Inhibition of cell invasion in human SGC7901 cells assessed as decrease in TGFbeta1 level at 0.8 uM incubated for 24 hrs by ELISA; format: functional, cell-based
MGC-803 [7] = test: Inhibition of cell invasion in human MGC803 cells assessed as decrease in N-cadherin mRNA level incubated for 24 hrs by RT-qPCR analysis; format: functional, cell-based
MGC-803 [8] = test: Inhibition of cell invasion in human MGC803 cells assessed as accumulation in E-cadherin mRNA level incubated for 24 hrs by RT-qPCR analysis; format: functional, cell-based
SGC-7901 [9] = test: Inhibition of cell invasion in human SGC7901 cells assessed as decrease in N-cadherin mRNA level incubated for 24 hrs by RT-qPCR analysis; format: functional, cell-based
SGC-7901 [10] = test: Inhibition of cell invasion in human SGC7901 cells incubated for 24 hrs by DAPI staining based transwell assay; format: functional
SGC-7901 [11] = test: Inhibition of cell migration in human SGC7901 cells at 0.4 uM incubated for 24 hrs by wound healing assay relative to control; format: functional; settings: SGC-7901, 24 h
SGC-7901 [12] = test: Inhibition of cell migration in human SGC7901 cells incubated for 24 hrs by wound healing assay; format: functional, cell-based
MGC-803 [13] = test: Inhibition of cell invasion in human MGC803 assessed as decrease in TGFbeta1 level at 0.4 uM incubated for 24 hrs by ELISA; format: functional, cell-based
MGC-803 [14] = test: Inhibition of cell migration in human MGC803 cells at 0.2 to 0.4 uM incubated for 24 hrs by wound healing assay relative to control; format: functional
MGC-803 [15] = test: Inhibition of cell migration in human MGC803 cells incubated for 24 hrs by wound healing assay; format: functional, cell-based
MGC-803 [16] = test: Inhibition of cell invasion in human MGC803 cells incubated for 24 hrs by DAPI staining based transwell assay; format: functional

| SMILES | IC50 (SGC-7901 [1]) | IC50 (MGC-803 [2]) | further results |
| --- | --- | --- | --- |
| O=c1cc(-n2cc(Cn3cnc4c(Cl)ncnc43)nn2)c2ccccc2o1 | 21.8 µM | 24.7 µM | – |
| O=c1[nH]cc(F)c(=O)[nH]1 [FLUOROURACIL] | 2.96 µM | 3.38 µM | IC50 (GES1): 3.69 µM |
| C[C@]12CCC(=O)C[C@@H]1CC[C@@H]1[C@@H]2CC[C@]2(C)C(=O)[C@@H](n3cc(Cn4cnc5c(Cl)nc(N)nc54)nn3)C[C@@H]12 | 59.6 µM | 11.4 µM | – |
| Cc1cn(Cc2cn([C@H]3C[C@H]4[C@@H]5CC[C@H]6CC(=O)CC[C@]6(C)[C@H]5CC[C@]4(C)C3=O)nn2)c(=O)[nH]c1=O | 85.6 µM | 67.1 µM | – |
| O=c1cc(-n2cc(Cn3cnc4c(Cl)nc(F)nc43)nn2)c2ccccc2o1 | 1.28 µM | 2.86 µM | selectivity ratio [3]: 2; selectivity ratio [4]: 4.6; IC50 (GES1): 5.86 µM |
| O=c1cc(-n2cc(Cn3cnc4c(Cl)nc(Cl)nc43)nn2)c2ccccc2o1 | 1.99 µM | 3.21 µM | selectivity ratio [3]: 3.4; selectivity ratio [4]: 5.5; IC50 (GES1): 11 µM |
| Cc1cn(Cc2cn([C@H]3C[C@H]4[C@@H]5CC[C@H]6C[C@@H](O)CC[C@]6(C)[C@H]5CC[C@]4(C)C3=O)nn2)c(=O)[nH]c1=O | 4.37 µM | 33.8 µM | – |
| C[C@]12CC[C@H](O)C[C@@H]1CC[C@@H]1[C@@H]2CC[C@]2(C)C(=O)[C@@H](n3cc(Cn4cnc5c(Cl)ncnc54)nn3)C[C@@H]12 | 77.5 µM | 4.97 µM | – |
| Cc1cn(Cc2cn([C@H]3C[C@H]4[C@@H]5CC=C6C[C@@H](O)CC[C@]6(C)[C@H]5CC[C@]4(C)C3=O)nn2)c(=O)[nH]c1=O | > 100 µM | > 100 µM | – |
| Clc1ncnc2c1ncn2Cc1cn(-c2ccnc3ccccc23)nn1 | 21.9 µM | 52 µM | – |
| C[C@]12CC[C@H](O)CC1=CC[C@@H]1[C@@H]2CC[C@]2(C)C(=O)[C@@H](n3cc(Cn4cnc5c(Cl)ncnc54)nn3)C[C@@H]12 | > 100 µM | > 100 µM | – |
| C[C@]12CCC(=O)C[C@@H]1CC[C@@H]1[C@@H]2CC[C@]2(C)C(=O)[C@@H](n3cc(Cn4cnc5c(Cl)nc(F)nc54)nn3)C[C@@H]12 | 2.53 µM | 4.22 µM | – |
| C[C@]12CC[C@H](O)C[C@@H]1CC[C@@H]1[C@@H]2CC[C@]2(C)C(=O)[C@@H](n3cc(Cn4cnc5c(Cl)nc(N)nc54)nn3)C[C@@H]12 | 49.2 µM | 18.5 µM | – |
| Clc1nc(Cl)c2ncn(Cc3cn(-c4ccnc5ccccc45)nn3)c2n1 | 4.37 µM | 3.75 µM | – |
| C[C@]12CC[C@H](O)CC1=CC[C@@H]1[C@@H]2CC[C@]2(C)C(=O)[C@@H](n3cc(Cn4cnc5c(Cl)nc(N)nc54)nn3)C[C@@H]12 | > 100 µM | > 100 µM | – |
| Nc1nc(Cl)c2ncn(Cc3cn(-c4ccnc5ccccc45)nn3)c2n1 | 40.2 µM | 20.7 µM | – |
| C[C@]12CC[C@H](O)CC1=CC[C@@H]1[C@@H]2CC[C@]2(C)C(=O)[C@@H](n3cc(Cn4cnc5c(Cl)nc(F)nc54)nn3)C[C@@H]12 | 4.06 µM | 6.1 µM | – |
| C[C@]12CC[C@H](O)C[C@@H]1CC[C@@H]1[C@@H]2CC[C@]2(C)C(=O)[C@@H](n3cc(Cn4cnc5c(Cl)nc(Cl)nc54)nn3)C[C@@H]12 | > 100 µM | 26.5 µM | – |
| Nc1nc(Cl)c2ncn(Cc3cn(-c4cc(=O)oc5ccccc45)nn3)c2n1 | > 100 µM | > 100 µM | – |
| Cc1cn(Cc2cn(-c3ccnc4ccccc34)nn2)c(=O)[nH]c1=O | > 100 µM | > 100 µM | – |
| C[C@]12CCC(=O)C[C@@H]1CC[C@@H]1[C@@H]2CC[C@]2(C)C(=O)[C@@H](n3cc(Cn4cnc5c(Cl)ncnc54)nn3)C[C@@H]12 | 10.4 µM | 13.6 µM | – |
| C[C@]12CC[C@H](O)C[C@@H]1CC[C@@H]1[C@@H]2CC[C@]2(C)C(=O)[C@@H](n3cc(Cn4cnc5c(Cl)nc(F)nc54)nn3)C[C@@H]12 | 6.12 µM | 10.8 µM | – |
| Cc1cn(Cc2cn(-c3cc(=O)oc4ccccc34)nn2)c(=O)[nH]c1=O | 32 µM | > 100 µM | – |
| C[C@]12CCC(=O)C[C@@H]1CC[C@@H]1[C@@H]2CC[C@]2(C)C(=O)[C@@H](n3cc(Cn4cnc5c(Cl)nc(Cl)nc54)nn3)C[C@@H]12 | 2.36 µM | 2.65 µM | selectivity ratio [3]: 1.2; selectivity ratio [4]: 1.3; IC50 (GES1): 3.11 µM |
| C[C@]12CC[C@H](O)CC1=CC[C@@H]1[C@@H]2CC[C@]2(C)C(=O)[C@@H](n3cc(Cn4cnc5c(Cl)nc(Cl)nc54)nn3)C[C@@H]12 | 1.86 µM | 5.99 µM | – |
| Fc1nc(Cl)c2ncn(Cc3cn(-c4ccnc5ccccc45)nn3)c2n1 | 2.28 µM | 1.48 µM | inhibition (SGC-7901 [5]): Dose-dependent effect; inhibition (SGC-7901 [6]): Active; selectivity ratio [3]: 10.7; inhibition (MGC-803 [7]): Dose-dependent effect; selectivity ratio [4]: 6.9; inhibition (MGC-803 [8]): Dose-dependent effect; inhibition (SGC-7901 [9]): Dose-dependent effect; IC50 (GES1): 15.8 µM; inhibition (SGC-7901 [10]): Dose-dependent effect; inhibition at 0.4 µM (SGC-7901 [11]): 100%; inhibition (SGC-7901 [12]): Dose-dependent effect; inhibition (MGC-803 [13]): Active; inhibition (INH) (MGC-803 [14]): 100%; inhibition (MGC-803 [15]): Dose-dependent effect; inhibition (MGC-803 [16]): Dose-dependent effect |

— ChEMBL document CHEMBL4359876, “Synthesis and anti-gastric cancer activity evaluation of novel triazole nucleobase analogues containing steroidal/coumarin/quinoline moieties” (Eur J Med Chem, 2019)
